Measurements as given in patent US20070218483A1, “SITE-SPECIFIC INCORPORATION OF FLUORINATED AMINO ACIDS INTO PROTEINS” (FRANKLIN AND MARSHALL COLLEGE, priority 2006, published 2007).
Entries after “also recorded” stand apart in the source; their conditions may differ.

What was measured:
E. coli DH10B cells = conditions: in vivo NMR cell samples
Method: Labeled NTR was also monitored in vivo.
E. coli DH10B cells containing pDule-tfmPhe1 and pTrc-NTR-124TAG or pTrc-NTR-36TAG were grown in modified minimal media containing supplemented flavin at 10 μM and induced to produce protein with 1.0 mM IPTG at an OD of 0.8. […] Cells were harvested 18 hrs after induction by centrifugation and stored at −80° C. Cells (from 0.5 L of media) for in vivo NMR measurements were thawed on ice, resuspended in 50 mL of PBS buffer (10 mM NaH2PO4, 140 mM NaCl pH 7.8) at 0° C., and repelleted by centrifugation at 5000 g. The cells for in vivo NMR spectra shown for NTR-tfmPhe-36 and NTR-tfmPhe-124 were washed 3 times and 5 times respectively.
NMR data were collected using a Varian Unity INOVA 500 MHz spectrometer fitted with a 5 mm broadband probe. The proton coil was tuned to fluorine frequency (470.114 MHz). Standard decoupling parameters were used with a 100,000 Hz spectral width, 9 μs pulse length (approximately 45°), 2.00 s acquisition time, and 1.00 s relaxation delay. A 10 Hz line broadening was applied and all spectra were recorded at 25±0.2° C. All spectra were locked and referenced to an internal standard containing 0.2% solution of 4-fluorotoluene in toluene-d8 (set at −120.771 ppm referenced from trifluorotoluene at −65.000 ppm). […]

[1] = molecular target: T1, modified pBpa MjTyrRS/tRNATyrCUA (Methanocaldococcus jannaschii, UniProt Q57834, D158T/E107P/I159A/L65V/Q56R/V103L/Y32G); assay: Incorporation into protein in response to TAG codon with modified pBpa synthetase (Ser159Ala, Leu65Val), SDS-PAGE; assay type: cell-based, Methanococcus jannaschii; conditions: E. coli, modified pBpa synthetase (SEQ ID NO: 8), Ser159Ala and Leu65Val
T1 construct: expressed in transfected cells; host or cells: E. coli
T1 sequence (Q57834 whole entry Y32G/Q56R/L65V/V103L/E107P/D158T/I159A): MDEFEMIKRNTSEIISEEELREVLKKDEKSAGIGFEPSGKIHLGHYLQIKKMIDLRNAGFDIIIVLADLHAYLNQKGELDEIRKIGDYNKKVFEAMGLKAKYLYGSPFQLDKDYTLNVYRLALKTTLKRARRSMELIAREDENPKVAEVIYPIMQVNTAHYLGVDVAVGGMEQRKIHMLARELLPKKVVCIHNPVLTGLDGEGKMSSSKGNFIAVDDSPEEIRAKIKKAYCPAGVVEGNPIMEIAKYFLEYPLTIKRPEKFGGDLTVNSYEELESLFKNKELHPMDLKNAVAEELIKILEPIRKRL
Text: (§1) To improve the incorporation efficiency of dfBpa, the active site of pBpa MjTyrRS was altered to better accommodate the slightly larger dfBpa amino acid. Amino acids in the active site (Ser159, Leu65) were reduced in size or reduced in polarity to better accept dfBpa.
(§2) Analysis of fluorinated pBpa-protein by SDS-PAGE.

pBpa MjTyrRS/tRNATyrCUA = molecular target: T2, pBpa MjTyrRS/tRNATyrCUA (Methanocaldococcus jannaschii, UniProt Q57834, D158T/E107P/I159S/Q56R/V103L/Y32G); assay: Incorporation into protein in response to TAG codon with pBpa synthetase, SDS-PAGE; assay type: cell-based, Methanococcus jannaschii; conditions: E. coli, amino acid added to the media, pBpa synthetase (SEQ ID NO: 7)
T2 construct: expressed in transfected cells; host or cells: E. coli carrying pDULE-pBpa
T2 sequence (Q57834 whole entry Y32G/Q56R/V103L/E107P/D158T/I159S): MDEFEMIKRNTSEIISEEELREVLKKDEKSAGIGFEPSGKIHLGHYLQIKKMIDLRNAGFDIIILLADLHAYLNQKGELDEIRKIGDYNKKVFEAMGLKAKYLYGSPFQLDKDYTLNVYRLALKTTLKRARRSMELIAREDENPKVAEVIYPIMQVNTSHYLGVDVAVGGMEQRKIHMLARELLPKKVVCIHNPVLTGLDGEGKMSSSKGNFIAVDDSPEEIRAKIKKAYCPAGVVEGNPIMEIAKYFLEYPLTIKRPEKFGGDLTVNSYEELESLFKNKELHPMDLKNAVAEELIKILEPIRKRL
Text: Incorporation of additional ^19F amino acids with p-benzoyl-phenylalanine (pBpa) synthetase. Using a synthetase known to selectively incorporate pBpa (SEQ ID NO: 7), other ^19F amino acids of similar shape and electrostatics may be incorporated site-specifically into proteins.
Analysis of incorporation of p-fluorobenzoylphenylalanine into protein response to a TAG stop codon in E. coli with evolved pBpa MjTyrRS/tRNA TyrCUA by SDS-PAGE.
as §1, §2

[2] = system: evolved tfmPhe MjTyrRS/tRNATyrCUA; assay: Incorporation into protein in response to TAG codon with tfmPhe synthetase, SDS-PAGE; assay type: cell-based, Methanococcus jannaschii; conditions: E. coli, amino acid added to the media
Text: The two top performing synthetases were subcloned into the pDule vector (pDule-tfmPhe1 and pDule-tfmPhe2) for further analysis of a protein containing tfmPhe. The medium copy pDule plasmid is designed to contain both the tRNA^TyrCUA and new synthetase allowing a standard high copy protein expression plasmid for use in production of tfmPhe containing protein.
Selection of tfmPhe specific tRNA-aminoacyl synthetase. A library of tRNA-aminoacyl synthetases was encoded on a kanamycin (Kn) resistant plasmid, pBK-JM-Lib, under control of the constitutive E. coli GlnRS promoter and terminator. The library was transformed by electroporation into DH10B E. coli containing the tetracycline (Tet) resistant positive selection plasmid, pREP2/YC-JYCUA. The positive selection plasmid encodes a mutant tRNA^TyrCUA, an amber disrupted chloramphenicol acetyltransferase, and an amber disrupted T7 RNA polymerase that drives the production of green fluorescent protein. The first positive selection was performed in the presence of 1 mM tfmPhe, 70 μg/mL chloramphenicol (Cm), 50 μg/mL Kn, and 25 μg/mL Tet in a modified GMML media at 37° C. with 250 rpm shaking until the OD was >1.0. Plasmid DNA was extracted and pBK-JM-Lib was separated from pREP2/YC-JYCUA by agarose gel electrophoresis. […]

HDH = assay: Photo crosslinking of protein upon ultraviolet irradiation, SDS-PAGE; conditions: amino acid incorporated in protein
Text: The amino acid pBpa in a protein may be used to determine the structural organization of the protein and conformational changes by initiating crosslinking with nearby peptides via externally provided ultraviolet irradiation. […] The time course of HDH-225pBpa and HDH-225-dfBpa during irradiation was studied by SDS-PAGE.

Structure (SMILES) | cell permeability (E. coli DH10B cells) | incorporation into protein in response to TAG codon (pBpa MjTyrRS/tRNATyrCUA) | crosslinking upon irradiation (HDH) | other results
NC(=O)C1=CN([C@@H]2O[C@H](COP(=O)(O)OP(=O)(O)OC[C@H]3O[C@@H](n4cnc5c(N)ncnc54)[C@H](O)[C@@H]3O)[C@@H](O)[C@H]2O)C=CC1 [NADH, reduced nicotinamide adenine dinucleotide] | poor cell permeability |  |  | 
O=C(O)c1cccnc1 [nicotinic acid] | poor cell permeability |  |  | 
N[C@@H](Cc1ccc(C(=O)c2ccccc2)cc1)C(=O)O [pBpa, p-benzoyl-phenylalanine, reference compound] |  | full length HDH was produced containing pBpa |  | incorporation into protein in response to TAG codon [1]: high efficiency; also recorded: full length HDH was produced containing pBpa
Cc1ccc(C[C@H](N)C(=O)O)cc1F [compound 4, 4-methyl-3-fluorophenylalanine] |  |  |  | incorporation into protein in response to TAG codon [2]: incorporated in the location coded by TAG; also recorded: full length HDH was produced containing 4
N[C@@H](Cc1ccc(C(=O)c2c(F)cccc2F)cc1)C(=O)O [compound 6, 2′,6′-difluoro-p-benzoylphenylalanine] |  | incorporated in the location coded by TAG; also recorded: less effectively than pBpa or 7 | shown to crosslink upon irradiation | incorporation into protein in response to TAG codon ([1]; listed as dfBpa): high efficiency; also recorded: length HDH was produced containing dfBpa; incorporation into protein in response to TAG codon (pBpa MjTyrRS/tRNATyrCUA; listed as dfBpa): full length HDH was produced containing dfBpa
O=C(N[C@@H](Cc1ccc(F)cc1)C(=O)O)c1ccccc1 [compound 7, p-fluorobenzoylphenylalanine] |  | incorporated in the location coded by TAG | shown to crosslink upon irradiation | incorporation into protein in response to TAG codon (pBpa MjTyrRS/tRNATyrCUA; listed as pfBpa): full length HDH was produced containing pfBpa
